Where two headings read alike, the source gives them in different places.
Columns and labels:
intraocular pressure = assay: IOP response in lasered (hypertensive) eyes of conscious cynomolgus monkeys; type: in vivo, cynomolgus monkey
Protocol: IOP Response in Lasered (Hypertensive) Eyes of Conscious Cynomolgus Monkeys
Intraocular pressure (IOP) was determined with an Alcon Pneumatonometer after light corneal anesthesia with 0.1% proparacaine. Eyes were washed with saline after each measurement. After a baseline IOP measurement, test compound was instilled in one 30 μL aliquot to the right eyes only of nine cynomolgus monkeys. Vehicle was instilled in the right eyes of six additional animals. Subsequent IOP measurements were taken at 1, 3, and 6 hours.

5-HT2 receptor = molecular target: T1, 5-HT2 receptor (Rattus norvegicus, UniProt P14842); assay: 5-HT2 functional assay: phosphoinositide (PI) turnover; type: cell-based; settings: for Emax: A7r5 cells, relative to 5-HT set at 100%, read-out: Efficacy (Emax, %) 5-HT2 functional
T1 construct: A7r5 rat vascular smooth muscle cells; endogenous in cells; host or cells: A7r5 rat vascular smooth muscle cells
T1 sequence (P14842 whole entry): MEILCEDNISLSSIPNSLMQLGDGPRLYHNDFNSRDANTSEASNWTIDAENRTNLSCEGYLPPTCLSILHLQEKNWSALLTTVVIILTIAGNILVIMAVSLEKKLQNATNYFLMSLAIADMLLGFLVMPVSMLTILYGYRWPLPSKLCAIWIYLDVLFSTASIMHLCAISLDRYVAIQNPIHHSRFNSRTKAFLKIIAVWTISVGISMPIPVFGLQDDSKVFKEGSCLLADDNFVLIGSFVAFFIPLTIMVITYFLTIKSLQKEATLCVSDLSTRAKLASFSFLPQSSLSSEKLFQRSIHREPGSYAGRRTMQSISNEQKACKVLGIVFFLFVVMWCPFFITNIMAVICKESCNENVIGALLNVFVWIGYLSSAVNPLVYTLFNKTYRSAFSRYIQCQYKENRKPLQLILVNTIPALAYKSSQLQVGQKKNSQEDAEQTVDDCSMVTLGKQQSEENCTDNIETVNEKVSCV
Protocol: 5-HT2 Functional Assay: Phosphoinositide (PI) Turnover Assay
The relative agonist activity of serotonergic compounds at the 5-HT2 receptor can be determined in vitro using the ability of the compounds to stimulate the production of [^3H]inositol phosphates in [^3H]myo-inositol-labeled A7r5 rat vascular smooth muscle cells by their ability to activate the enzyme phospholipase C. These cells are grown in culture plates, maintained in a humidified atmosphere of 5% CO2 and 95% air and fed semi-weekly with Dulbecco's modified Eagle medium (DMEM) containing 4.5 g/l glucose and supplemented with 2 mM glutamine, 10 μg/ml gentamicin, and 10% fetal bovine serum. For the purpose of conducting the phosphoinositide (PI) turnover experiments, the A7r5 cells are cultured in 24-well plates as previously [J. Pharmacol. Expt. Ther., 286, 411 (1998)]. Confluent cells are exposed for 24-30 hrs to 1.5 μCi [^3H]-myo-inositol (18.3 Ci/mmol) in 0.5 ml of serum-free medium. Cells are then rinsed once with DMEM/F-12 containing 10 mM LiCl prior to incubation with the test agent (or solvent as the control) in 1.0 ml of the same medium for 1 hr at 37° C., after which the medium is aspirated and 1 ml of cold 0.1 M formic acid added to stop the reaction. The chromatographic separation of [^3H]-inositol phosphates ([^3H]-IPs) on an AG-1-X8 column is performed as previously described [J. Pharmacol. Expt. Ther. 286, 411 (1998)] with sequential washes with H2O and 50 mM ammonium formate, followed by elution of the total [^3H]-IPs fraction with 1.2 M ammonium formate containing 0.1 M formic acid. The eluate (4 ml) is collected, mixed with 15 ml scintillation fluid, and the total [^3H]-IPs determined by scintillation counting on a beta counter. Concentration-response data are analyzed by the sigmoidal fit function of the Origin Scientific Graphics software (Microcal Software, Northampton, Mass.) to determine agonist potency (EC50 value) and efficacy (Emax). Serotonin (5-HT) is used as a positive control (standard) agonist compound and the efficacy of test compounds is compared to that of 5-HT (set at 100%). The concentration of the compound needed to stimulate the production of [^3H]-IPs by 50% of the maximum response is termed the EC50 value.

[1] = molecular target: T2, human cloned 5-HT1A receptors (Homo sapiens, UniProt P08908); assay: 5-HT1A receptor binding assay ([3H]8-OH-DPAT)
T2 construct: purchased NEN (manufactured by Biosignal, Inc., Montreal, Canada); host or cells: CHO cells (membranes)
T2 sequence (P08908 1-422): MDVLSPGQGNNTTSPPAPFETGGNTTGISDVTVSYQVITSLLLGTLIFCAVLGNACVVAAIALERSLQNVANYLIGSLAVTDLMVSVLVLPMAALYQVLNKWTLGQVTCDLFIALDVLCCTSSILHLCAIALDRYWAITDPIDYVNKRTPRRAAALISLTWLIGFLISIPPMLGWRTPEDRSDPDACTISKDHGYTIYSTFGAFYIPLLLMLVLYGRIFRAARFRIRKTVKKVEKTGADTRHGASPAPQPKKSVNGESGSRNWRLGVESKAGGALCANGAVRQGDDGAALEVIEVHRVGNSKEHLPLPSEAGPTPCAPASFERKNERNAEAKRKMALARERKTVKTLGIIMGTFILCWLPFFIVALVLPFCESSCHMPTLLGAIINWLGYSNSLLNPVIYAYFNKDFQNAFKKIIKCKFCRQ
Protocol: 5-HT1A Receptor Binding Assay
5-HT1A binding studies were performed with human cloned receptors expressed in Chinese hamster ovary (CHO) cells using (^3H)8-OH DPAT as the ligand. Membranes from Chinese hamster ovary cells (CHO) expressing cloned 5-HT1A receptors (manufactured for NEN by Biosignal, Inc., Montreal, Canada) were homogenized in approximately 40 volumes of 50 mM Tris pH 7.4 for 5 sec. Drug dilutions were made using a Beckman Biomek 2000 robot (Beckman Instruments, Fullerton, Calif.). Incubations were conducted with membrane prep, test compounds, and 0.25 nM [^3H]8-OH-DPAT (NEN, Boston, Mass.) in the same buffer at 27° C. for 1 h. Assays were terminated by rapid vacuum filtration over Whatman GF/B glass fiber filters pre-soaked in 0.3% polyethyleneimine. Bound radioactivity was measured using liquid scintillation spectrometry. Data were analyzed using non-linear curve fitting programs (Sharif et al., J. Pharmac. Pharmacol. 51: 685-694, 1999).
Ligand binding studies can also be run using membrane preparations from calf and rat brain (local source) and human cortex membranes. Specific brain regions were dissected out, homogenized in 10 volumes of 0.32 M sucrose and centrifuged for 10 min at 700×g. The resulting supernatant was centrifuged at 43,500×g for 10 min and the pellet re-suspended in 50 mM Tris-HCl (pH 7.7, 25° C.) using a 10 sec polytron treatment. Aliquots were stored at −140° C. To remove endogenous serotonin, the preps were incubated at 37° C. for 10 min prior to the experiment. Assay incubations were terminated by rapid filtration over Whatman GF/C filters using a Brandel cell harvester. Ki values were calculated using the Cheng-Prusoff equation (De Vry et al., J. Pharm. Exper. Ther. 284:1082-1094, 1998.)

[2] = 300 μg topical ocular, 1 hour after dose
[3] = 300 μg topical ocular, 3 hours after dose
[4] = 300 μg topical ocular, 6 hours after dose

SMILES | Percent IOP Reduction (intraocular pressure; [2]) [%] | Percent IOP Reduction (intraocular pressure; [3]) [%] | Percent IOP Reduction (intraocular pressure; [4]) [%] | Emax (5-HT2 receptor) [%] | EC50 (5-HT2 receptor; [3H]inositol phosphates, A7r5 rat vascular smooth muscle cells, read-out: EC50, nM (SEM) 5-HT2 functional) [nM] | IC50 ([1]; [3H]8-OH-DPAT, CHO cell membranes, read-out: IC50, nM (SEM) 5-HT1A receptor binding) [nM] | EC50 (5-HT2 receptor) [nM] | IC50 [1] [nM] | Percent IOP Reduction (intraocular pressure; 250 μg topical ocular, 1 hour after dose) [%] | Percent IOP Reduction (intraocular pressure; 250 μg topical ocular, 3 hours after dose) [%] | Percent IOP Reduction (intraocular pressure; 250 μg topical ocular, 6 hours after dose) [%]
CC(N)Cn1ccc2ccc(O)cc21.O=C(O)/C=C/C(=O)O (centres unmarked) [1-(2-aminopropyl) 6-hydroxyindole fumarate] | 19.1 | 30.1 | 27 | 86 | 577 | 111 | – | – | – | – | –
COc1ccc2[nH]cc(CC(C)N)c2c1.O=C(O)/C=C/C(=O)O (stereo not drawn) [α-Methyl 5-methoxytryptamine fumarate] | 14 | 23.5 | 22.6 | 81 | – | – | 206 | 26.5 | – | – | –
CC(N)Cc1c[nH]c2ccc(O)cc12.O=C(O)/C=C\C(=O)O (stereo not drawn) [α-Methyl 5-hydroxytryptamine maleate, 3-(2-aminopropyl)-1H-indol-5-ol] | – | – | – | 104 | – | – | – | 22.5 | 14.2 | 25.8 | 30.8

Reference: patent US20030114512A1, “Compounds with 5-ht2 and 5-ht1a agonist activity for treating glaucoma” (priority 2002, published 2003)
